Key:
[1] = tested on: influenza virus A/Vladivostok/2/09 (H1N1); test: Virus inhibitory activity on chicken embryo model (chemical therapeutic index); assay type: in vivo; conditions: samples 0.0016%–0.2% (0.003–0.4 mg per chicken embryo), Rimantadine 10 µg/mL, Tamiflu 6 µg/mL
Experimental: Rimantadine® (Olainfarm, Olaine, Latvia), alpha-methyltricyclo[3.3.1.1/.7]decan-1-methanamine (in the form of hydrochloride)) was used as a comparison drug at a dose of 10 µg /mL and Tamiflu® (Oseltamivir, Hoffmann-La Roche, Basel, Switzerland, (3R,4R,5S)-4-acetylamino-5-amino-3-(1-ethylpropoxy)-1-cyclohexene-1-carboxylic acid ethyl […], phosphate)) at a dose of 6 µg /mL.
To determine the chemical therapeutic index (CTI), the virus inhibitory activity of samples was studied at concentrations from 0.0016% to 0.2%, which corresponded to doses of 0.003–0.4 mg per chicken embryo (0.06–8 mg/kg) (Table 2).

[2] = tested on: influenza virus A/Vladivostok/2/09 (H1N1); assay type: in vivo; conditions: compound 0.2%, 0.4 mg/ch.e. (8 mg/kg)
[3] = tested on: neuraminidase activity of influenza virus A/Vladivostok/2/09 (H1N1); test: Effect on neuraminidase activity (fluorescent kit); assay type: biochemical; conditions: maximum dose 1 mg/100 μL
Experimental: To determine the effect of lupinine derivatives 1–5 on neuraminidase activity, the maximum dose of 1 mg/100 μL was used. It was established (Figure 3) that compounds 4 and 5 were able to alter the neuraminidase activity of influenza viruses. It was shown that these two triazole-containing lupinines suppressed neuraminidase activity by no more than 40%.
The determination of the neuraminidase activity of the studied samples was carried out using a fluorescent kit in accordance with the manufacturer’s recommendations (AbCam, Cambridge, UK). The non-fluorescent neuraminidase substrate becomes highly fluorescent when cleaved by neuraminidase. The signal is easily read by fluorescence at Ex/Em = ~320/~450 nm.
Figure 3 The influence of the studied samples on neuraminidase activity.

[4] = tested on: hemagglutinating activity of influenza A/Vladivostok/2/09 (H1N1) virus; test: Effect on hemagglutinating activity of influenza virus; conditions: maximum dose 1 mg/100 μL
Experimental: The hemagglutinating activity of viruses was determined according to the standard method [53] using a 0.75% suspension of chicken erythrocytes. When determining the effect of the studied sample on hemagglutinating properties, the sample in different doses was mixed with the virus, and after 30 min of incubation at 37 °C, the hemagglutinating activity was determined using the standard method.

| Structure (SMILES) | Chemical Therapeutic Index of the Studied Sample [1] | Decrease in Influenza Virus Infectivity Titer, lg [2] | Suppression of neuraminidase activity [3] | Suppression of hemagglutinating activity [4] |
| --- | --- | --- | --- | --- |
| COc1ccc(-c2cn(C[C@@H]3CCCN4CCCC[C@H]34)nn2)cc1 [Compound 1, (1S,9aR)-1-{[4-(4-Methoxyphenyl)-1H-1,2,3-triazol-1-yl]methyl}octahydro-2H-quinolizine] | 64.0 |  |  |  |
| Cc1cccc(-c2cn(C[C@@H]3CCCN4CCCC[C@H]34)nn2)c1 [Compound 2, (1S,9aR)-1-{[4-(m-Tolyl)-1H-1,2,3-triazol-1-yl]methyl}octahydro-2H-quinolizine] | 57.0 | 0.8 lg |  |  |
| c1ccc(-c2cn(C[C@@H]3CCCN4CCCC[C@H]34)nn2)cc1 [Compound 3, (1S,9aR)-1-[(4-Phenyl-1H-1,2,3-triazol-1-yl)methyl]octahydro-2H-quinolizine] | 8.1 | 0.0 lg |  |  |
| O=Cc1ccc(OCc2cn(C[C@@H]3CCCN4CCCC[C@H]34)nn2)cc1 [Compound 4, 4-({1-[((1S,9aR)-Octahydro-2H-quinolizin-1-yl)methyl]-1H-1,2,3-triazol-4-yl}methoxy)benzaldehyde] | 40.0 |  | no more than 40% |  |
| CCc1cc(C(=O)OCc2cn(C[C@@H]3CCCN4CCCC[C@H]34)nn2)c(O)c(C(C)(C)C)c1 [Compound 5, {1-[((1S,9aR)-Octahydro-2H-quinolizin-1-yl)methyl]-1H-1,2,3-triazol-4-yl}methyl-3-tert-butyl-2-hydroxy-5-ethylbenzoate] | >100.0 |  | no more than 40% | no less than 25% |
| CC(N)C12CC3CC(CC(C3)C1)C2 (stereo not drawn) [Rimantadine, alpha-methyltricyclo[3.3.1.1/.7]decan-1-methanamine, reference compound] | 30 |  |  |  |
| CCOC(=O)C1=C[C@@H](OC(CC)CC)[C@H](NC(C)=O)[C@@H](N)C1 [Tamiflu, (3R,4R,5S)-4-acetylamino-5-amino-3-(1-ethylpropoxy)-1-cyclohexene-1-carboxylic acid ethyl ether, phosphate, reference compound] | 11.0 |  |  |  |

Source: publication PMC11644009 (Molecules, 2024)
